Results reported in patent US20260242390A1, “TOTAL SYNTHESES OF PORTIMINE A AND ANALOGUES THEREOF AS SMALL MOLECULE MODULATORS OF NMD3” (priority 2023, published 2026).

How the values were obtained:
[1] = test system: HepG2; experiment: Broad cell line profiling, HepG2; format: cell-based; settings: Homo sapiens; HepG2, Hepatocellular Carcinoma; read-out: PA IC50
Excerpt: (§1) • A panel of human and mouse cancer cell types used to assess the breadth of PA activity, including multiple therapy resistant metastatic mesenchymal tumor cell lines and primary glioblastoma patient-derived metastatic stem/tumor initiating cell populations.

[2] = test system: 786-O; experiment: Broad cell line profiling, 786-O; format: cell-based; settings: Homo sapiens, 786-0, Renal Adenocarcinoma, read-out: PA IC50
Excerpt: as §1

[3] = test system: HCC1806; experiment: Broad cell line profiling, HCC1806; format: cell-based; settings: Homo sapiens; HCC1806, Acantholytic Squamous Carcinoma; read-out: PA IC50
Excerpt: as §1

[4] = test system: A673; experiment: Broad cell line profiling, A673; format: cell-based; settings: A673, Human Ewings Sarcoma; read-out: PA IC50
Excerpt: as §1

[5] = test system: XPO1; experiment: XPO1 protein level in Jurkat cells; format: cell-based, human
Method: (§2) FIG. 7. Portimine A targets NMD3 and prevents polysome formation. […] (A) Immunoblot showing reduced NMD3 levels in shNMD3 Jurkat and HeLa cells. […] Jurkat cells were treated with 12.5 nM of PA for 12 or 24 hours. Jurkat and HeLa cells were treated with 5 nM or 150 nM of PA for 24 hours. Data represents mean±SD of biologically replicated experiments (n=3). […] Cell lysates were fractionated by sucrose gradient (5-50%) and each fraction were analyzed by western blot. eIF6 levels increase in 60S subunit fraction and decrease in ribosome-free fractions after PA treatment. RPS6, a 40S and polysome subunits marker, is decreased in polysome fractions after PA treatment. Results are representative of three independent experiments. […] Relative protein levels in each fraction were normalized to the peak fraction of the indicated protein from the DMSO cells and plotted. Data represents mean±SD of biologically replicated experiments (n=3). Statistical analysis was performed using multiple unpaired Student t-test. * p≤0.05; ** p≤0.01; *** p≤0.005; **** p≤0.0001. Treatment condition: Jurkat (5 M per condition); Incubate cells (1 M/mL) with inhibitors for 6 hr, 12 hr and 24 hr, respectively.
(§3) • 1) Portimine A and its functional analogs show stereo-selective acute toxicity in cancer cells (FIG. 1). […] (B) Structure of portimine related analogs: phenyl-portimine A (Ph-PA, 36) and epi-portimine A (ePA, 38). […]

[6] = test system: Jurkat; experiment: Broad cell line profiling, Jurkat; format: cell-based; settings: Human Leukemia, read-out: PA IC50
Excerpt: as §1

[7] = test system: B16-F10; experiment: Broad cell line profiling, B16-F10; format: cell-based; settings: B16-F10, Mouse Melanoma; read-out: PA IC50
Excerpt: as §1

[8] = test system: LNCaP; experiment: Broad cell line profiling, LNCaP; format: cell-based; settings: Homo sapiens, Prostate Carcinoma, read-out: PA IC50
Excerpt: as §1

[9] = test system: Jurkat cells; experiment: Polysome profiling; format: cell-based, human; settings: 6 hours at 50 nM
Method: as §2, §3

[10] = test system: HeLa; experiment: Broad cell line profiling, HeLa; format: cell-based; settings: Homo sapiens, Cervical Adenocarcinoma, read-out: PA IC50
Excerpt: as §1

[11] = test system: Bcl2; experiment: Bcl2 protein level in Jurkat cells; format: cell-based, human; settings: 6/12 hrs
Method: as §2, §3

[12] = test system: LN229; experiment: Broad cell line profiling, LN229; format: cell-based; settings: Homo sapiens, LN-229; LN229, Glioblastoma; read-out: PA IC50
Excerpt: as §1

Compound: C=CC1=C[C@@H]2[C@@H]3O[C@]4(CC[C@H](O4)C(C)C[C@@H](O)C3=O)CC(O)C3=NCC[C@@]32CC1 (stereo partly drawn) [PA, portimine A]
- IC50 [1]: 4.8 nM
- IC50 [2]: 1.8 nM
- IC50 [3]: 0.72 nM
- IC50 [4]: 2.5 nM
- XPO1 levels [5]: unaffected
- IC50 [6]: 0.56 nM
- IC50 [7]: 0.75 nM
- IC50 [8]: 1.7 nM
- polysome profiling, protein translation [9]: protein translation inhibition
- IC50 [10]: 1.6 nM
- Bcl2 levels [11]: does not affect
- IC50 [12]: 1.1 nM
